# Where “and” joins values, the source holds several entries; their conditions need not be identical. Equal values may be shown once.
# Tests used:
# [1] = target: T1, jack bean urease (JBU) (Canavalia ensiformis, UniProt P07374); experiment: Urease inhibition test (modified Berthelot method); assay type: biochemical
# T1 construct: Urease from jack bean (Canavalia ensiformis, JBU); purchased Sigma-Aldrich (St Louis, MO, USA) type III (catalogue number not given)
# Method: (§1) HPU was prepared as previously described. The standard urease assay mixture included 150 mM urea in 20 mM HEPES buffer (pH 7.5). After addition of small aliquots of enzyme-containing solution of urease, the assay ran for 20 min. The enzymatic activity was evaluated spectrophotometrically by detecting the ammonia concentration at 595 nm according to the modified Berthelot (phenol-hypochlorite) method. Urease activity was estimated with JBU as a standard, the specific activity of HPU was determined to be 17.0 U/mg. One unit of urease activity was defined as 1 μmol of ammonia released per min at 25°C. The amount of protein was determined by commercial Bradford Protein Assay Kit with BSA as a standard. The amount of ammonia released was decided from a standard curve. The activity of uninhibited urease was defined as the control activity of 100%.
# (§2) Reaction mixtures comprising 0.25 mg/mL HPU or JBU and different concentrations of Pal or AHA at the volume ratio of 1:1, were incubated at 37°C in 20 mM HEPES buffer (pH 7.5) in the absence of urea. The reactions were initiated by mixing the urease and the inhibitor. The preincubation mixture was withdrawn at 20 min and immediately transferred into the standard assay mixtures for urease residual activity determination. Inhibition rate (%) was calculated following the formula: I % = (1-activity with inhibitors/activity without inhibitors) × 100%. The IC50 was expressed as the concentration of inhibitor that decreased urease activity by 50% and calculated by plotting the percent of inhibition. The experiments were triply performed.
# [2] = target: T2, H. pylori urease (HPU) (Helicobacter pylori, UniProt P69996); experiment: Urease inhibition test (modified Berthelot method); assay type: biochemical; conditions: for Residual activity: Fig 2A HPU, replicates
# T2 construct: HPU was prepared as previously described; made in house
# T2 sequence (P14916 whole entry): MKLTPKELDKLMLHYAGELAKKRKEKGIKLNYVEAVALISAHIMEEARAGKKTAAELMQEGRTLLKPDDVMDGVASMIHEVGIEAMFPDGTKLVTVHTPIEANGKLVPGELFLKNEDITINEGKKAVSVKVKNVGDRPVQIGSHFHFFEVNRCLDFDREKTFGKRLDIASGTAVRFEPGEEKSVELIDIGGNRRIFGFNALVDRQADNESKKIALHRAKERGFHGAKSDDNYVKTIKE
# T2 sequence (P69996 whole entry): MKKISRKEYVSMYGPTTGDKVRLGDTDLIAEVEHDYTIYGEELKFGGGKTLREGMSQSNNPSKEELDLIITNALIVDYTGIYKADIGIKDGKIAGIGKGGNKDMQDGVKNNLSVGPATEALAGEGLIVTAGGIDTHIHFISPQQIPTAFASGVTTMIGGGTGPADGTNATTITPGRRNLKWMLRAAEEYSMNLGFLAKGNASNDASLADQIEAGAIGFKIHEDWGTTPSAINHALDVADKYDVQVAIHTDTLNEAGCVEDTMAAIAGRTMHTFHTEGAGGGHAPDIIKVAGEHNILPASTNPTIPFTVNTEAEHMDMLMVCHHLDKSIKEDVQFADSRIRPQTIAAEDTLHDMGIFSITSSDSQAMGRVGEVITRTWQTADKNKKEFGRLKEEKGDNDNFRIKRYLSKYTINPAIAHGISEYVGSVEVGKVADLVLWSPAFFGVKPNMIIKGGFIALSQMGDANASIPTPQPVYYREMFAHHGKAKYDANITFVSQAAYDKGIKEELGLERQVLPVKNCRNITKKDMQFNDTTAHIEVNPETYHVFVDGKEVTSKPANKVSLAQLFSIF
# Method: as §1, §2
# T1 sequence (P07374 whole entry, looked up): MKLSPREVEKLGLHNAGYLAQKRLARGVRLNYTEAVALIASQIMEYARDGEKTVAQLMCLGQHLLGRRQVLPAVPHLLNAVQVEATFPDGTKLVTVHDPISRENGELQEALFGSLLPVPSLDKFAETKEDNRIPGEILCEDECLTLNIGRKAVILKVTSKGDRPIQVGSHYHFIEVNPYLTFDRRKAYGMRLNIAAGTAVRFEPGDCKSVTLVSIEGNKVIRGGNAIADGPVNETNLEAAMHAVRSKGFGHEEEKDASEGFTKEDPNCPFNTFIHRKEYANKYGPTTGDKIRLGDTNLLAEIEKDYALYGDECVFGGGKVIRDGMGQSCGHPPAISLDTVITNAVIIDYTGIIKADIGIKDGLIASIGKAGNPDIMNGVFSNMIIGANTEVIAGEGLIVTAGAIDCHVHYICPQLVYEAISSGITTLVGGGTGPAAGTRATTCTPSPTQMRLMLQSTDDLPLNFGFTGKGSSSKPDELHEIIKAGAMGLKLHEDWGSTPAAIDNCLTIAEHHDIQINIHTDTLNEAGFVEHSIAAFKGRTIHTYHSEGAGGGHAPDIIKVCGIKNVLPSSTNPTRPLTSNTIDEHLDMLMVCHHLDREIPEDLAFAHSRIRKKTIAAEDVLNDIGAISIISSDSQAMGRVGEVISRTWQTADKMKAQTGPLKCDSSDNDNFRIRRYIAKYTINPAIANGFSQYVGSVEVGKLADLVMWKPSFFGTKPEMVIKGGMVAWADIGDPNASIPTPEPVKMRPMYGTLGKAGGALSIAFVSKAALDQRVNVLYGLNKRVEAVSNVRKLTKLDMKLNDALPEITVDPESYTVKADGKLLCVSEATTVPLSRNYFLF
compound,measurement,setting,value
"COc1cc2c(cc1OC)-c1cc3ccc(OC)c(OC)c3c[n+]1CC2 [Pal, Palmatine]",IC50,[1],30 µM
same,Residual activity,"[1]; Fig 2B JBU, Pal 0.0149062 mM, replicates",54.1182% and 57.7693%
same,Residual activity,"[1]; Fig 2B JBU, Pal 0.0298125 mM, replicates",50.3004% and 49.1799%
same,Residual activity,"[1]; Fig 2B JBU, Pal 0.059625 mM, replicates",40.1092% and 41.6437%
same,Residual activity,"[1]; Fig 2B JBU, Pal 0.11925 mM, replicates",37.8863% and 32.26%
same,Residual activity,"[1]; Fig 2B JBU, Pal 0.2385 mM, replicates",38.5515% and 35.644%
same,Residual activity,"[1]; Fig 2B JBU, Pal 0.477 mM, replicates",32.5751% and 31.4745%
same,Residual activity,"[1]; Fig 2B JBU, Pal 0.954 mM, replicates",26.1588% and 18.0767%
same,Residual activity,"[1]; Fig 2D JBU, head prints Pal 0.00188802 mM, replicates",95.2237% and 88.9105%
same,Residual activity,"[1]; Fig 2D JBU, head prints Pal 0.00377605 mM, replicates",91.7722% and 82.8804%
same,Residual activity,"[1]; Fig 2D JBU, head prints Pal 0.00755209 mM, replicates",77.2806% and 78.6217%
same,Residual activity,"[1]; Fig 2D JBU, head prints Pal 0.0151042 mM, replicates",56.6996% and 59.4273%
same,Residual activity,"[1]; Fig 2D JBU, head prints Pal 0.0302084 mM, replicates",37.3504% and 39.7719%
same,Residual activity,"[1]; Fig 2D JBU, head prints Pal 0.0604167 mM, replicates",24.6949% and 22.6887%
same,Residual activity,"[1]; Fig 2D JBU, head prints Pal 0.120833 mM, replicates",12.8879% and 13.7831%
same,Residual activity,"[1]; Fig 2D JBU, head prints Pal 0.241667 mM, replicates",10.3312% and 12.3028%
same,remaining activity at 14.9062 µM,"[1]; read-out: Residual activity, Fig 2B JBU, Pal 0.0149062 mM, replicates",55.1%
same,remaining activity at 29.8125 µM,"[1]; read-out: Residual activity, Fig 2B JBU, Pal 0.0298125 mM, replicates",49%
same,remaining activity at 59.625 µM,"[1]; read-out: Residual activity, Fig 2B JBU, Pal 0.059625 mM, replicates",45.6%
same,remaining activity at 119.25 µM,"[1]; read-out: Residual activity, Fig 2B JBU, Pal 0.11925 mM, replicates",38.6%
same,remaining activity at 238.5 µM,"[1]; read-out: Residual activity, Fig 2B JBU, Pal 0.2385 mM, replicates",36.2%
same,remaining activity at 477 µM,"[1]; read-out: Residual activity, Fig 2B JBU, Pal 0.477 mM, replicates",25.7%
same,remaining activity at 954 µM,"[1]; read-out: Residual activity, Fig 2B JBU, Pal 0.954 mM, replicates",27.1%
same,remaining activity at 1.88802 µM,"[1]; read-out: Residual activity, Fig 2D JBU, head prints Pal 0.00188802 mM, replicates",94.8%
same,remaining activity at 3.77605 µM,"[1]; read-out: Residual activity, Fig 2D JBU, head prints Pal 0.00377605 mM, replicates",88.2%
same,remaining activity at 7.55209 µM,"[1]; read-out: Residual activity, Fig 2D JBU, head prints Pal 0.00755209 mM, replicates",75.2%
same,remaining activity at 15.1042 µM,"[1]; read-out: Residual activity, Fig 2D JBU, head prints Pal 0.0151042 mM, replicates",55.4%
same,remaining activity at 30.2084 µM,"[1]; read-out: Residual activity, Fig 2D JBU, head prints Pal 0.0302084 mM, replicates",36.9%
same,remaining activity at 60.4167 µM,"[1]; read-out: Residual activity, Fig 2D JBU, head prints Pal 0.0604167 mM, replicates",25.4%
same,remaining activity at 120.833 µM,"[1]; read-out: Residual activity, Fig 2D JBU, head prints Pal 0.120833 mM, replicates",15.7%
same,remaining activity at 241.667 µM,"[1]; read-out: Residual activity, Fig 2D JBU, head prints Pal 0.241667 mM, replicates",11.3%
same,IC50,[2],530 ± 10 µM
same,Residual activity,[2]; Pal 0.0149062 mM,97.2774% and 99.8185%
same,Residual activity,[2]; Pal 0.0298125 mM,98.3238% and 98.6586%
same,Residual activity,[2]; Pal 0.059625 mM,95.8144% and 91.8003%
same,Residual activity,[2]; Pal 0.11925 mM,84.6333% and 83.9334%
same,Residual activity,[2]; Pal 0.2385 mM,71.2237% and 68.6838%

# — article PMC5207512, “Inhibition of Helicobacter pylori and Its Associated Urease by Palmatine: Investigation on the Potential Mechanism” (PLoS ONE, 2017)
